Drawing on patent US12565673B2, “Methods for the design of nonallosteric sirtuin activating compounds” (Chakrabarti Advanced Technology, LLC, priority 2020, dated 2026), this text covers Kd for one molecule.

Where only a bound is given, the exact number is not on record here.

As a reminder, the Kd is the concentration at which binding is half-saturated.

In this assay the target is T1, hSirt3^102-399 (Homo sapiens, UniProt Q9NTG7).
T1 construct: hSirt3^102-399 was expressed in E. coli Arctic Express (DE3) cells; His-tag (only implied by the HisTrap / imidazole purification); made in house; host or cells: E. coli Arctic Express (DE3)
T1 sequence (Q9NTG7 102-399): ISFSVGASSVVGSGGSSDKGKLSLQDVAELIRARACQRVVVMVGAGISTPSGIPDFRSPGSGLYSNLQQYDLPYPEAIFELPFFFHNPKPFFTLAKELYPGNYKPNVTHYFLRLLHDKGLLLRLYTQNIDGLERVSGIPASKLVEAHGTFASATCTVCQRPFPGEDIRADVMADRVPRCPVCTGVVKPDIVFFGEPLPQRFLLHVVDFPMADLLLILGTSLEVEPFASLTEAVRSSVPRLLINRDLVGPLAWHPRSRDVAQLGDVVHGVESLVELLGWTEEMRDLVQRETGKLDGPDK
The experiment in a line: hSirt3 ligand binding assay by microscale thermophoresis (MST). Particulars: Sirt3.Ac-MnSOD complex (FIG. 9).

Experimental: The binding affinities of ligands to complexes in the catalytic mechanism of SIRT3/MnSOD peptide substrate were measured using microscale thermophoresis (MST; FIG. 9, FIG. 10).
Briefly, the protein conjugation was done in 1×PBS pH 7.4, 0.05% Pluronic F-127, and the labeled protein was buffer exchanged into 47 mM Tris-HCl pH 8.0, 129 mM NaCl, 2.5 mM KCl, 0.94 mM MgCl2, 5% DMSO, 0.05% Tween-20. We used 2 nM labeled hSirt3 and titrated with varying concentrations of the modulators in the absence and presence of various concentrations of substrates, products and intermediates. The thermophoresis was measured (excitation/emission 653/672 nm) using a Monolith NT. […] Dissociation constants (Kd) were determined using GraFit7 (Erithacus Software) by nonlinear fitting.

As to `C=CCc1ccc(O)c(-c2ccc(O)c(CC=C)c2)c1` [HKL, 5, 3′-Diallyl-2, 4′-dihydroxybiphenyl], the Kd was less than 10 µM.
